Test system: keratinocytes, HaCaT cells
Experiment: Inhibition rate on keratinocyte (HaCaT cell) proliferation, MTT
Format: cell-based
Settings: Homo sapiens
Description: Dimethyl sulfoxide (DMSO) was used as a solvent to prepare apigenin test samples with different concentrations and luteolin test samples with different concentrations. 9 batches of experiments were performed, which respectively were Batch 1 to Batch 9. There were 6 independent experiments in each batch of experiments. In each independent experiment, inhibition rate of an apigenin test sample with a specific concentration on keratinocyte proliferation and inhibition rate of a luteolin test sample with a specific concentration on keratinocyte proliferation were determined, and inhibition rate of a combination of an apigenin test sample with the said specific concentration and a luteolin test sample with the said specific concentration on keratinocyte proliferation was determined. Between the independent experiments, concentrations of apigenin test samples used were different, and concentrations of luteolin test samples used were also different, however, mole ratios or weight ratios of apigenin test samples to luteolin test samples were the same. Moreover, between the batches of experiments, mole ratios or weight ratios of apigenin test samples to luteolin test samples were different. 5×10^3 keratinocytes, HaCaT cells, were inoculated in a 96-well culture plate and then placed in a 37° C. and 5% CO2 incubator for culturing overnight, and cell numbers at this time point (T0) was used as a benchmark for cell proliferation. After overnight culture, a test sample was added to the cells in the culture plate (refer to Table 1, and the cells of the control group were only treated with dimethyl sulfoxide) for co-culturing for 48 hours (T48). After that, the supernatant in the culture plate was removed. After the supernatant was removed, 50 μL MTT solution (0.5 mg/mL; Life Technologies Cat. No. M-6494) was added to cells and then the culture plate was placed in a 37° C. and 5% CO2 incubator for culturing for 1.5 hours. After that, 150 μL DMSO (J. T. Baker, Cat. No. 9224-03) was added to the cells in the culture plate and shaken for 5 minutes. Thereafter, the absorbance of each well of the culture plate was determined at 570 nm by a continuous wavelength microplate reader, and inhibition rate on cell proliferation was calculated through the following formula: Inhibition rate on cell proliferation=T48 Control group570 nm−T48 Experimental group570 nm)/(T48 Control group570 nm−T0 Control group570 nm) In this experiment, the synergistic effects of apigenin and luteolin were evaluated by CalcuSyn software (BIOSOFT). CalcuSyn software is an analysis software which is commonly used to analyze the drug dosage effect of single drug and multiple drugs at present. CalcuSyn software can be used to analyze drug complex interactions and automatically quantify various phenomena such as synergism and inhibition. CalcuSyn software can process the data of individual drugs and combination drugs with constant-ratio or on-constant-ratio, and can evaluate the interaction of combination drugs by the combination index (CI) (Chou and Talalay, Adv. Enzyme Regul. 22:27-55 (1984) calculated by CalcuSyn software. Calculation formula for the combination index is shown in the following: Combination index=C1/IC1+C2/IC2 C1 and C2 are the respective concentrations of the first compound and the second compound at which the activity of achieving a specific physiological or medical purpose is 50% (or 75%, or 90%) when the first compound and the second compound are analyzed in combination; IC1 and IC2 are the respective concentrations at which the activity of achieving a specific physiological or medical purpose of the first compound and the second compound is 50% (or 75%, or 90%) when the first compound and the second compound are independently analyzed. […]

`O=c1cc(-c2ccc(O)c(O)c2)oc2cc(O)cc(O)c12` [Luteolin, luteolin] gave an inhibition at 3.125 µM (Batch 1, luteolin 3.125 μM/0.89 μg/mL) of 0%, an inhibition at 6.25 µM (Batch 1, luteolin 6.25 μM/1.79 μg/mL) of 0.9% and an inhibition at 12.5 µM (Batch 1, luteolin 12.5 μM/3.58 μg/mL) of 17.2%. It also gave an inhibition at 25 µM (Batch 1, luteolin 25 μM/7.16 μg/mL) of 44.6%, an inhibition at 50 µM (Batch 1, luteolin 50 μM/14.31 μg/mL) of 67.7% and an inhibition at 100 µM (Batch 1, luteolin 100 μM/28.62 μg/mL) of 101%. For the same compound, the inhibition at 1.5625 µM (Batch 2, luteolin 1.5625 μM/0.45 μg/mL) was 11.3%, the inhibition at 3.125 µM (Batch 2, luteolin 3.125 μM/0.89 μg/mL) was 5.1% and the inhibition at 6.25 µM (Batch 2, luteolin 6.25 μM/1.79 μg/mL) was 19.6%. It also gave an inhibition at 12.5 µM (Batch 2, luteolin 12.5 μM/3.58 μg/mL) of 35%, an inhibition at 25 µM (Batch 2, luteolin 25 μM/7.16 μg/mL) of 53.8% and an inhibition at 50 µM (Batch 2, luteolin 50 μM/14.31 μg/mL) of 75.2%. It also gave an inhibition at 0.625 µM (Batch 3, luteolin 0.625 μM/0.18 μg/mL) of 1.9%, an inhibition at 1.25 µM (Batch 3, luteolin 1.25 μM/0.36 μg/mL) of 2.8% and an inhibition at 2.5 µM (Batch 3, luteolin 2.5 μM/0.72 μg/mL) of 4.3%. It also gave an inhibition at 5 µM (Batch 3, luteolin 5 μM/1.43 μg/mL) of 13.7%, an inhibition at 10 µM (Batch 3, luteolin 10 μM/2.86 μg/mL) of 31.9% and an inhibition at 20 µM (Batch 3, luteolin 20 μM/5.72 μg/mL) of 55.6%. The inhibition at 0.3125 µM (Batch 4, luteolin 0.3125 μM/0.09 μg/mL) was 0.4%, the inhibition at 0.625 µM (Batch 4, luteolin 0.625 μM/0.18 μg/mL) was 0% and the inhibition at 1.25 µM (Batch 4, luteolin 1.25 μM/0.36 μg/mL) was 0%. It also gave an inhibition at 2.5 µM (Batch 4, luteolin 2.5 μM/0.72 μg/mL) of 0%, an inhibition at 5 µM (Batch 4, luteolin 5 μM/1.43 μg/mL) of 0.8% and an inhibition at 10 µM (Batch 4, luteolin 10 μM/2.86 μg/mL) of 6.6%. The inhibition at 0.15625 µM (Batch 5, luteolin 0.15625 μM/0.04 μg/mL) was 11.4%, the inhibition at 0.3125 µM (Batch 5, luteolin 0.3125 μM/0.09 μg/mL) was 14% and the inhibition at 0.625 µM (Batch 5, luteolin 0.625 μM/0.18 μg/mL) was 4.3%. It also gave an inhibition at 1.25 µM (Batch 5, luteolin 1.25 μM/0.36 μg/mL) of 0%, an inhibition at 2.5 µM (Batch 5, luteolin 2.5 μM/0.72 μg/mL) of 0% and an inhibition at 5 µM (Batch 5, luteolin 5 μM/1.43 μg/mL) of 3.3%. It also gave an inhibition at 3.125 µM (Batch 6, luteolin 3.125 μM/0.89 μg/mL) of 0%, an inhibition at 6.25 µM (Batch 6, luteolin 6.25 μM/1.79 μg/mL) of 0.6% and an inhibition at 12.5 µM (Batch 6, luteolin 12.5 μM/3.58 μg/mL) of 18.5%. For the same compound, the inhibition at 25 µM (Batch 6, luteolin 25 μM/7.16 μg/mL) was 42.2%, the inhibition at 50 µM (Batch 6, luteolin 50 μM/14.31 μg/mL) was 57.8% and the inhibition at 100 µM (Batch 6, luteolin 100 μM/28.62 μg/mL) was 94.2%. It also gave an inhibition at 3.125 µM (Batch 7, luteolin 3.125 μM/0.89 μg/mL) of 8.6%, an inhibition at 6.25 µM (Batch 7, luteolin 6.25 μM/1.79 μg/mL) of 19% and an inhibition at 12.5 µM (Batch 7, luteolin 12.5 μM/3.58 μg/mL) of 37.5%. For the same compound, the inhibition at 25 µM (Batch 7, luteolin 25 μM/7.16 μg/mL) was 55.1%, the inhibition at 50 µM (Batch 7, luteolin 50 μM/14.31 μg/mL) was 70.1% and the inhibition at 100 µM (Batch 7, luteolin 100 μM/28.62 μg/mL) was 108%. The inhibition at 3.125 µM (Batch 8, luteolin 3.125 μM/0.89 μg/mL) was 5.2%, the inhibition at 6.25 µM (Batch 8, luteolin 6.25 μM/1.79 μg/mL) was 13.8% and the inhibition at 12.5 µM (Batch 8, luteolin 12.5 μM/3.58 μg/mL) was 33.5%. For the same compound, the inhibition at 25 µM (Batch 8, luteolin 25 μM/7.16 μg/mL) was 50.7%, the inhibition at 50 µM (Batch 8, luteolin 50 μM/14.31 μg/mL) was 63.6% and the inhibition at 100 µM (Batch 8, luteolin 100 μM/28.62 μg/mL) was 100%. It also gave an inhibition at 3.125 µM (Batch 9, luteolin 3.125 μM/0.89 μg/mL) of 4.2%, an inhibition at 6.25 µM (Batch 9, luteolin 6.25 μM/1.79 μg/mL) of 11% and an inhibition at 12.5 µM (Batch 9, luteolin 12.5 μM/3.58 μg/mL) of 30.1%. The inhibition at 25 µM (Batch 9, luteolin 25 μM/7.16 μg/mL) was 47.8%, the inhibition at 50 µM (Batch 9, luteolin 50 μM/14.31 μg/mL) was 62% and the inhibition at 100 µM (Batch 9, luteolin 100 μM/28.62 μg/mL) was 104%.
